Data: US20230131966A1, “FUNGICIDAL AMIDES” (FMC Corporation, priority 2020, published 2023)

What was measured:
Type in all cases: in vivo
Botrytis cinerea = assay: Test E: tomato Botrytis control on tomato seedlings; conditions: 250 ppm, 100 = 100% disease control, 0 = no control; for pest or weed control at 250 ppm: Botrytis cinerea, read-out: Test E disease control rating
Plasmopara viticola = assay: Test D: grape downy mildew control on grape seedlings; conditions: 250 ppm, 100 = 100% disease control, 0 = no control; for pest or weed control at 250 ppm: Plasmopara viticola, read-out: Test D disease control rating
Phytophthora infestans = assay: whole plant or invertebrate; conditions: tomato seedlings, 100 = 100% disease control, 0 = no control; for Test F disease control rating: 250 ppm; for pest or weed control at 250 ppm: Phytophthora infestans, in Solanum lycopersicum, read-out: Test F disease control rating, 250 ppm
[1] = tested on: Puccinia recondita f. sp. tritici; assay: Test B: wheat leaf rust control on wheat seedlings; conditions: 250 ppm, wheat seedlings, 100 = 100% disease control, 0 = no control; for pest or weed control at 250 ppm: Puccinia recondita, read-out: Test B disease control rating
Phakopsora pachyrhizi = assay: Test A: Asian soybean rust control on soybean seedlings; conditions: 250 ppm, soybean seedlings, 100 = 100% disease control, 0 = no control; for pest or weed control at 250 ppm: Phakopsora pachyrhizi, read-out: Test A disease control rating
Zymoseptoria tritici = assay: Test C: wheat leaf blotch control on wheat seedlings; conditions: 250 ppm, wheat seedlings, 100 = 100% disease control, 0 = no control; for pest or weed control at 250 ppm: Zymoseptoria tritici, read-out: Test C disease control rating
[2] = tested on: Erysiphe graminis f. sp. tritici; assay: Test G: wheat powdery mildew control on wheat seedlings; conditions: 250 ppm, 100 = 100% disease control, 0 = no control; for pest or weed control at 250 ppm: Blumeria graminis, read-out: Test G disease control rating

Row | Compound | Test E disease control rating (Botrytis cinerea) | Test D disease control rating (Plasmopara viticola) | Test F disease control rating (Phytophthora infestans) | Test B disease control rating [1] | Test A disease control rating (Phakopsora pachyrhizi) | Test C disease control rating (Zymoseptoria tritici) | Test G disease control rating [2] | pest or weed control at 250 ppm (Botrytis cinerea) | pest or weed control at 250 ppm (Plasmopara viticola) | pest or weed control at 250 ppm (Phytophthora infestans) | pest or weed control at 250 ppm [1] | pest or weed control at 250 ppm (Phakopsora pachyrhizi) | pest or weed control at 250 ppm (Zymoseptoria tritici) | pest or weed control at 250 ppm [2]
1 | COc1ccnc(C(=O)NC(C)C(=O)N(C)C(C)c2ccc(C3CCCCC3)cc2)c1O (mixture of isomers) [Compound 98] | 0% | 71% | 0% | 0% | 89% | 59% | 0% | – | – | – | – | – | – | –
2 | COc1ccnc(C(=O)NC(C(=O)OC(C)c2ccc(C3CCCCC3)cc2)C(C)C)c1O (mixture of isomers) [Compound 70] | 0% | 63% | 24% | 100% | 100% | 97% | 13% | – | – | – | – | – | – | –
3 | CCC(OC(=O)[C@H](C)NC(=O)c1nccc(OC)c1OCOC(=O)C(C)C)C1CCCCC1 (single isomer, unassigned) [Compound 170] | 0% | 32% | 0% | 100% | 100% | 100% | 0% | – | – | – | – | – | – | –
4 | COc1cccc(C(=O)N[C@@H](C)C(=O)OC(C)c2ccccc2Cc2ccccc2)c1OC(C)=O (single isomer, unassigned) [Compound 7] | 0% | 35% | 0% | 0% | 0% | 0% | 0% | – | – | – | – | – | – | –
5 | COc1ccnc(C(=O)N[C@@H](C)C(=O)OC(C)c2ccc(C3CCCCC3)cc2)c1OC(C)=O (mixture of isomers) [Compound 31, N-[[3-(acetyloxy)-4-methoxy-2-pyridinyl]carbonyl]-L-alanine 1-(4-cyclohexylphenyl)ethyl ester] | – | – | – | – | – | – | – | 0% | 1% | 0% | 100% | 100% | 87% | 73%
6 | COc1ccnc(C(=O)N[C@@H](C)C(=O)OC(C)c2ccc(C3CC3)cc2)c1O (mixture of isomers) [Compound 66, N-[(3-hydroxy-4-methoxy-2-pyridinyl)carbonyl]-L-alanine 1-(4-cyclopropylphenyl)ethyl ester] | – | – | – | – | – | – | – | 0% | 93% | 0% | 100% | 100% | 73% | 21%
7 | COc1ccnc(C(=O)N[C@@H](C)C(=O)OC(C)C2CCC(c3ccccc3)CC2)c1OC(C)=O (mixture of isomers) [Compound 104, N-[[3-(acetyloxy)-4-methoxy-2-pyridinyl]carbonyl]-L-alanine 1-(4-phenylcyclohexyl)ethyl ester] | – | – | – | – | – | – | – | 0% | 65% | 0% | 100% | 100% | 93% | 0%
8 | COc1ccnc(C(=O)NC(C)C(=O)OC(C)c2ccc(-n3ccc(C(F)(F)F)n3)cc2-n2ccc(C(F)(F)F)n2)c1OC(C)=O (mixture of isomers) [Compound 90] | 0% | 17% | 0% | 55% | 0% | 0% | 0% | – | – | – | – | – | – | –
9 | COc1ccnc(C(=O)N[C@@H](C)C(=O)OC(C)c2ccc(C(C)C)cc2)c1OC(C)=O (stereo partly shown) [Compound 117] | 0% | 71% | 0% | 100% | 100% | 94% | 0% | – | – | – | – | – | – | –
10 | COc1ccnc(C(=O)NC(C)C(=O)OC(C)C2CC(C)(C)CC(C)(C)C2)c1OC(C)=O (mixture of isomers) [Compound 171] | 0% | 49% | 53% | 100% | 100% | 80% | 0% | – | – | – | – | – | – | –
11 | COc1ccnc(C(=O)N[C@@H](C)C(=O)OC(C)c2ccc(C3CCCCC3)cc2)c1OCOC(C)=O (single isomer, unassigned) [Compound 146] | 0% | 31% | 0% | 91% | 73% | 91% | 60% | – | – | – | – | – | – | –
12 | COc1ccnc(C(=O)NC(C)C(=O)OC(C)c2ccc(-n3ccc(C(F)(F)F)n3)cc2-n2ccc(C(F)(F)F)n2)c1O (mixture of isomers) [Compound 89] | 0% | 16% | 0% | 0% | 0% | 0% | 0% | – | – | – | – | – | – | –
13 | COc1ccnc(C(=O)N[C@@H](C)C(=O)OC(C)c2ccccc2Cc2ccc(F)cc2)c1O (single isomer, unassigned) [Compound 39] | 57% | 16% | 0% | 100% | 100% | 87% | 0% | – | – | – | – | – | – | –
14 | COc1ccnc(C(=O)N[C@@H](C)C(=O)OC(C)c2ccc(CC3CCCCC3)cc2)c1OC(C)=O (single isomer, unassigned) [Compound 128] | 0% | 57% | 0% | 90% | 95% | 83% | 0% | – | – | – | – | – | – | –
15 | COc1ccnc(C(=O)NC(C)C(=O)OC(C)c2ccccc2C(F)(F)F)c1OC(C)=O (mixture of isomers) [Compound 18] | 0% | 35% | 0% | 68% | 62% | 93% | 0% | – | – | – | – | – | – | –
16 | COc1ccnc(C(=O)NC(C)C(=O)OC(C)c2ccc(F)cc2Cc2ccccc2)c1O (mixture of isomers) [Compound 12] | 0% | 83% | 0% | 97% | 99% | 0% | 0% | – | – | – | – | – | – | –
17 | CCC(OC(=O)[C@H](C)NC(=O)c1nccc(OC)c1OC(C)=O)C1CCCCC1 (single isomer, unassigned) [Compound 168] | 0% | 31% | 0% | 100% | 100% | 99% | 0% | – | – | – | – | – | – | –
18 | C=CCOc1c(OC)ccnc1C(=O)NC(C)C(=O)OC(C)c1ccc(C2CCCCC2)cc1 (mixture of isomers) [Compound 153] | 0% | 70% | 26% | 95% | 100% | 24% | 0% | – | – | – | – | – | – | –
19 | COc1ccnc(C(=O)N[C@@H](C)C(=O)OC(C)c2ccc(C3CCCCC3)cc2)c1OCOC(=O)C(C)C (single isomer, unassigned) [Compound 144] | 0% | 35% | 0% | 86% | 77% | 93% | 0% | – | – | – | – | – | – | –
20 | COc1ccnc(C(=O)N[C@@H](C)C(=O)O[C@@H](C)C2CCCCC2)c1OC(C)=O [Compound 87, N-[[3-(acetyloxy)-4-methoxy-2-pyridinyl]carbonyl]-L-alanine (1S)-1-cyclohexylethyl ester] | – | – | – | – | – | – | – | 0% | 21% | 47% | – | 100% | 95% | 0%
